Measured values reported in patent US20230265116A1, “DEGRADATION OF (EGFR) BY CONJUGATION OF EGFR INHIBITORS WITH E3 LIGASE LIGAND AND METHODS OF USE” (BEIGENE, LTD., priority 2020, published 2023).

Key:
[1] = molecular target: T1, EGFR L858R/T790M/C797S (BaF3-LTC cells) (Homo sapiens, UniProt P00533, C797S/L858R/T790M); test: EGFR degradation HTRF assay, BaF3-LTC cells; assay type: cell-based; settings: BaF3-LTC cells; for DC50: EGFR degradation, IC50 (DC50) from curve fit, read-out: DC50(nM) BaF3-LTC; for Dmax: maximum percentage of inhibition (degradation), read-out: Dmax (%) BaF3-LTC
T1 construct: expressed in transfected cells; host or cells: BaF3
T1 sequence (P00533 25-1210 T790M/C797S/L858R): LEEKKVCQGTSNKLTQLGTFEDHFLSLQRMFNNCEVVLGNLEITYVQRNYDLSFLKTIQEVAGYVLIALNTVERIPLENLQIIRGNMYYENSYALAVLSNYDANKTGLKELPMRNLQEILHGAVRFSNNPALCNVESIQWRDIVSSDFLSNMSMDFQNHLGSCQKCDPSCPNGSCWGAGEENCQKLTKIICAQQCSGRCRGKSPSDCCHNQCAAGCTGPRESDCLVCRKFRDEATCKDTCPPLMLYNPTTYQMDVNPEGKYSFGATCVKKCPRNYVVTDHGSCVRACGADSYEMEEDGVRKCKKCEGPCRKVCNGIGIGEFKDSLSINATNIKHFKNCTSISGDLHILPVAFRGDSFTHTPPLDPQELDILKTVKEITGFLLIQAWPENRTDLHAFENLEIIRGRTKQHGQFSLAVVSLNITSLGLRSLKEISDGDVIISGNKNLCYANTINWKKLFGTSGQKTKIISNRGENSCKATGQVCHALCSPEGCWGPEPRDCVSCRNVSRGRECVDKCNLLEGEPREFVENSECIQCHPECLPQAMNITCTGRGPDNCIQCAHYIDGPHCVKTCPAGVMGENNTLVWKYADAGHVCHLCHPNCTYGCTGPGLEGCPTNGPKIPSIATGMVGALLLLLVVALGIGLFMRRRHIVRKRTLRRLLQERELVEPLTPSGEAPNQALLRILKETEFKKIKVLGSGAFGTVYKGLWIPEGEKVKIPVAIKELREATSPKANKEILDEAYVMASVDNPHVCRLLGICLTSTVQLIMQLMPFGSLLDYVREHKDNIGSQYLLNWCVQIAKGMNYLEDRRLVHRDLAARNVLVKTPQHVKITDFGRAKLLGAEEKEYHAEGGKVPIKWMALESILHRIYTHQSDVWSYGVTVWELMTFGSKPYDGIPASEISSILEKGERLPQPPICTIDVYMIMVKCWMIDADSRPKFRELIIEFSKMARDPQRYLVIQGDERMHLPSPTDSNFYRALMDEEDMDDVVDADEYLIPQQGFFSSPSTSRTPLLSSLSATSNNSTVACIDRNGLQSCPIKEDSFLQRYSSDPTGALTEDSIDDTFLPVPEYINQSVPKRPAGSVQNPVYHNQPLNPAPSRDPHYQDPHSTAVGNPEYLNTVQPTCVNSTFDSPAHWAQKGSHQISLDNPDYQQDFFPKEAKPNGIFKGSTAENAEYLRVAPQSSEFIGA
Experimental: (§1) BaF3 WT(wild type), BaF3-LTC(L858R/T790M/C797S) and BaF3-DTC(Del19/T790M/C797S) cells are treated with compounds diluted in 0.2% DMSO cell culture medium and incubate for 16h, 37° C., 5% CO2, H1975-#36, H1975-#28, H1975-#23 and HCC827 cells are treated with compounds diluted in 0.2% DMSO cell culture medium on day 2, incubate for 16h, 37° C., 5% CO2.the final concentriation of compounds in all assay is start with 10 uM, 5-fold dilution, total 8 doses were included.
(§2) After 16h treatment, add HTRF lysis buffer to each well; seal the plate and incubate 1 hour at room temperature on a plate shaker; Once the cells are lysed, 16 μL of cell lysate are transferred to a PE 384-well HTRF detection plate; 4 μL of pre-mixed HTRF antibodies are added to each well; Cover the plate with a plate sealer, spin 1000 rpm for 1 min, Incubate overnight at room temperature; Read on BMG PheraStar with HTRF protocol (337 nm-665 nm-620 nm).
(§3) The inhibition (degradation) percentage of the compound was calculated by the following equation: Inhibition percentage of Compound=100-100×(Signal-low control)/(High control-low control), wherein signal=each test compound group
(§4) High control=Cell group with added DMSO and without compound, indicating microplate readings without EGFR degradation;
(§5) Dmax is the maximum percentage of inhibition (degradation).
(§6) The IC50 (DC50) value of a compound can be obtained by fitting the following equation
(§7) Y=Bottom+(TOP−Bottom)/(1+((IC50/X)^hillslope))
(§8) Wherein, X and Y are known values, and IC50, Hillslope, Top and Bottom are the parameters obtained by fitting with software. Y is the inhibition percentage (calculated from the equation), X is the concentration of the compound; IC50 is the concentration of the compound when the 50% inhibition is reached. The smaller the IC50 value is, the stronger the inhibitory ability of the compound is. Vice versa, the higher the IC50 value is, the weaker the inhibitory ability of the compound is; Hillslope represents the slope of the fitted curve, generally around 1*; Bottom represents the minimum value of the curve obtained by data fitting, which is generally 0%±20%; Top represents the maximum value of the curve obtained by data fitting, which is generally 100%±20%. The experimental data were fitted by calculating and analyzing with Dotmatics data analysis software.

[2] = system: EGFR Del19/T790M/C797S (H1975-clone #28); test: EGFR degradation HTRF assay, H1975-clone #28 DTC cells; assay type: cell-based; settings: H1975 # 28 DTC cells; for DC50: EGFR degradation, IC50 (DC50) from curve fit, read-out: DC50(nM) H1975 # 28 DTC; for Dmax (%) H1975 # 28 DTC: maximum percentage of inhibition (degradation)
Experimental: H1975-clone #28(Del19/T790M/C797S) and H1975-clone #23(Del19/C797S). EGFR-Del19/T790M/C797S and EGFR-Del19/C797S were stably expressed in H1975 cell lines by lentivirus-mediated over-expression, respectively. The EGFR over-expressed cells then underwent gene knockout, in which the EGFR targeting sgRNA was designed to only target the endogenous EGFR copies and preserve the exogenous EGFR copies. Followed by the gene knockout, the edited H1975 cells were seeded in 96 well plates at the concentration of 1 cell/well, cultured for about 2 weeks to allow single clones formation. The formed clones were screened by DNA sequencing and whole exon sequencing analysis for the desired edition. H1975-clone #28 and H1975-clone #23 were finally confirmed as homozygous Del19/T790M/C797S EGFR and Del19/C797S EGFR clones, respectively.
as §1, §2, §3, §4, §5, §6, §7, §8

Structure (SMILES)	DC50 [1] [nM]	Dmax [1] [%]	DC50 [2] [nM]	Dmax (%) H1975 # 28 DTC [2] [%]
CCOc1cc(N2CCC(N3CCN(CCN(C)c4cccc5c4oc(=O)n5C4CCC(=O)NC4=O)CC3)CC2)c(CC)cc1Nc1ncc(Br)c(Nc2cc(F)c3nc(CC)ccc3c2P(C)(C)=O)n1 (stereo not drawn) [Example 604, 3-(7-((2-(4-(1-(4-((5-bromo-4-((5-(dimethylphosphoryl)-2-ethyl-8-fluoroquinolin-6-yl)amino)pyrimidin-2-yl)amino)-5-ethoxy-2-ethylphenyl)piperidin-4-yl)piperazin-1-yl)ethyl)(methyl)amino)-2-oxobenzo[d]oxazol-3(2H)-yl)piperidine-2,6-dione]	18.5	86.1	0.764	69.1
CCOc1cc(N2CCC(N3CCN(CCc4cc(F)c([C@H]5CCC(=O)NC5=O)c(F)c4)CC3)CC2)c(CC)cc1Nc1ncc(Br)c(Nc2ccc3nc(C)c(F)cc3c2P(C)(C)=O)n1 [Example 728, (R)-3-(4-(2-(4-(1-(4-((5-bromo-4-((5-(dimethylphosphoryl)-3-fluoro-2-methylquinolin-6-yl)amino)pyrimidin-2-yl)amino)-5-ethoxy-2-ethylphenyl)piperidin-4-yl)piperazin-1-yl)ethyl)-2,6-difluorophenyl)piperidine-2,6-dione]	9.14		0.803	87.57
CCc1ccc2c(P(C)(C)=O)c(Nc3nc(Nc4cc(C)c(N5CCC(N6CCN(CCc7ccc8c(c7)oc(=O)n8C7CCC(=O)NC7=O)CC6)CC5)cc4OC4CC4)ncc3Br)ccc2n1 (stereo not drawn) [Example 568, 3-(6-(2-(4-(1-(4-((5-bromo-4-((5-(dimethylphosphoryl)-2-ethylquinolin-6-yl)amino)pyrimidin-2-yl)amino)-5-cyclopropoxy-2-methylphenyl)piperidin-4-yl)piperazin-1-yl)ethyl)-2-oxobenzo[d]oxazol-3(2H)-yl)piperidine-2,6-dione]	10.4	87	2.38	91.62
CCOc1cc(N2CCC(N3CCN(C(=O)[C@H]4CN(c5cc(F)c([C@H]6CCC(=O)NC6=O)c(F)c5)CC4(C)C)CC3)CC2)c(C)cc1Nc1ncc(Br)c(Nc2ccc3nc(C)ccc3c2P(C)(C)=O)n1 [Example 727, (R)-3-(4-((R)-4-(4-(1-(4-((5-bromo-4-((5-(dimethylphosphoryl)-2-methylquinolin-6-yl)amino)pyrimidin-2-yl)amino)-5-ethoxy-2-methylphenyl)piperidin-4-yl)piperazine-1-carbonyl)-3,3-dimethylpyrrolidin-1-yl)-2,6-difluorophenyl)piperidine-2,6-dione]	8.61		4.29	77.39
CCc1cc(Nc2ncc(Br)c(Nc3ccc4nc(C#N)ccc4c3P(C)(C)=O)n2)c(OC)cc1N1CCC(N2CCN(C(=O)[C@@H]3CCN(c4cc(F)c([C@H]5CCC(=O)NC5=O)c(F)c4)C3)CC2)CC1 [Example 674, 6-((5-bromo-2-((4-(4-(4-((R)-1-(4-((R)-2,6-dioxopiperidin-3-yl)-3,5-difluorophenyl)pyrrolidine-3-carbonyl)piperazin-1-yl)piperidin-1-yl)-5-ethyl-2-methoxyphenyl)amino)pyrimidin-4-yl)amino)-5-(dimethylphosphoryl)quinoline-2-carbonitrile]	9.62	94.6	2.19	69.95
CCc1cc(Nc2ncc(Br)c(Nc3ccc4nc(C)ccc4c3P(C)(C)=O)n2)c(OC)cc1N1CCC(N2CCN(C(=O)[C@@H]3CCN(c4ccc([C@H]5CCC(=O)NC5=O)cc4)C3)CC2)CC1 [Example 569, (R)-3-(4-((R)-3-(4-(1-(4-((5-bromo-4-((5-(dimethylphosphoryl)-2-methylquinolin-6-yl)amino)pyrimidin-2-yl)amino)-2-ethyl-5-methoxyphenyl)piperidin-4-yl)piperazine-1-carbonyl)pyrrolidin-1-yl)phenyl)piperidine-2,6-dione]		86.5		
CCc1cc(Nc2ncc(Br)c(Nc3ccc4nc(C)ccc4c3P(C)(C)=O)n2)c(OC2CC2)cc1N1CCC(N2CCN(CCc3cc(F)c([C@H]4CCC(=O)NC4=O)c(F)c3)CC2)CC1 [Example 459, (R)-3-(4-(2-(4-(1-(4-((5-bromo-4-((5-(dimethylphosphoryl)-2-methylquinolin-6-yl)amino)pyrimidin-2-yl)amino)-5-cyclopropoxy-2-ethylphenyl)piperidin-4-yl)piperazin-1-yl)ethyl)-2,6-difluorophenyl)piperidine-2,6-dione]			0.851	86.08

More lines, main results first:

DC50 [1] [nM]	Dmax [1] [%]	DC50 [2] [nM]	Structure (SMILES)	Dmax (%) H1975 # 28 DTC [2] [%]
2.5	96.2	0.695	CCc1ccc2c(P(C)(C)=O)c(Nc3nc(Nc4cc(CC)c(N5CCC(N6CCN(CCc7cccc8c7n(C)c(=O)n8C7CCC(=O)NC7=O)CC6)CC5)cc4OC4CC4)ncc3Br)ccc2n1 (stereo not drawn) [Example 585, 3-(4-(2-(4-(1-(4-((5-bromo-4-((5-(dimethylphosphoryl)-2-ethylquinolin-6-yl)amino)pyrimidin-2-yl)amino)-5-cyclopropoxy-2-ethylphenyl)piperidin-4-yl)piperazin-1-yl)ethyl)-3-methyl-2-oxo-2,3-dihydro-1H-benzo[d]imidazol-1-yl)piperidine-2,6-dione]	79.08
21.9	95.4	1.05	CCOc1cc(N2CCC(N3CCN(CCc4ccc5c(oc(=O)n5C5CCC(=O)NC5=O)c4Cl)CC3)CC2)c(CC)cc1Nc1ncc(Br)c(Nc2ccc3nc(CC)ccc3c2P(C)(C)=O)n1 (stereo not drawn) [Example 624, 3-(6-(2-(4-(1-(4-((5-bromo-4-((5-(dimethylphosphoryl)-2-ethylquinolin-6-yl)amino)pyrimidin-2-yl)amino)-5-ethoxy-2-ethylphenyl)piperidin-4-yl)piperazin-1-yl)ethyl)-7-chloro-2-oxobenzo[d]oxazol-3(2H)-yl)piperidine-2,6-dione]	73.81
4.01		0.564	CCOc1cc(N2CCC(N3CCN(CCc4c(F)ccc5c4n(C)c(=O)n5C4CCC(=O)NC4=O)CC3)CC2)c(CC)cc1Nc1ncc(Br)c(Nc2ccc3nc(CC)ncc3c2P(C)(C)=O)n1 (stereo not drawn) [Example 736, 3-(4-(2-(4-(1-(4-((5-bromo-4-((5-(dimethylphosphoryl)-2-ethylquinazolin-6-yl)amino)pyrimidin-2-yl)amino)-5-ethoxy-2-ethylphenyl)piperidin-4-yl)piperazin-1-yl)ethyl)-5-fluoro-3-methyl-2-oxo-2,3-dihydro-1H-benzol[d]imidazol-1-yl)piperidine-2,6-dione]	81.93
5.7	93.1	0.704	CCc1ccc2c(P(C)(C)=O)c(Nc3nc(Nc4cc(CC)c(N5CCC(N6CCN(CCc7cccc8c7n(CC)c(=O)n8C7CCC(=O)NC7=O)CC6)CC5)cc4OC)ncc3Br)ccc2n1 (stereo not drawn) [Example 453, 3-(4-(2-(4-(1-(4-((5-bromo-4-((5-(dimethylphosphoryl)-2-ethylquinolin-6-yl)amino)pyrimidin-2-yl)amino)-2-ethyl-5-methoxyphenyl)piperidin-4-yl)piperazin-1-yl)ethyl)-3-ethyl-2-oxo-2,3-dihydro-TH-benzo[d]imidazol-1-yl)piperidine-2,6-dione]	77.04
